Data published in patent publication US11846639B2, “Ligand discovery for T cell receptors” (priority 2014, dated 2023).

Tested on: AGA1 T cell receptor
Test: Selection of yeast-displayed HLA-B5703 peptide library with AGA1 TCR, deep sequencing read counts
Type: binding
Details: for number of times the peptide was represented, Rd1: after round 1 of selection with AGA1 TCR; for number of times the peptide was represented, Rd2: after round 2 of selection with AGA1 TCR; for number of times the peptide was represented, Rd3: after round 3 of selection with AGA1 TCR; for number of times the peptide was represented, Rd4: after round 4 of selection with AGA1 TCR; for number of times the peptide was represented, Naïve: naïve library before selection
Protocol: Selection of pMHC libraries To maximize sensitivity of selections, all described selection steps were conducted at 4° using cold buffers, and refrigerated centrifuges. All spins were 5,000×g for 1 minute. Before each round of selection, a small sample of yeast (˜1×10^6 cells) were stained with an anti-epitope tag antibody. For the first round of selection, ˜2×10^9 yeast were washed once with PBS+0.5% BSA and 1 mM EDTA (PBE buffer) and then cleared with unloaded Streptavidin Microbeads (250 uL beads in 5 mL PBE) (Miltenyi, 130-048-101) to eliminate any nonspecifically binding yeast clones by incubating 1 hr at 4° with gentle rotation. The yeast were then spun down, resuspended in 5 mL PBE without a wash, and passed through a Miltenyi LS column. […] TCR-binding yeast were then selected via an LS column, washed in SDCAA, and then re-cultured in SDCAA, pH 4.5 at 30° C. overnight. Yeast were re-induced upon reaching OD>2. For each round of selection, at least 10-fold more yeast was used than recovered from the previous round to ensure complete coverage of all selected yeast. Second and third rounds of selection were conducted in the same manner, but with reduced volumes (50 µL of beads in 500 LL PBE). Progress of selections was monitored by counting of cells selected to TCR-bound streptavidin beads as compared to streptavidin beads alone via an Accuri C6 flow cytometer. […] For the final round of selection (conducted when the yeast count enriched by TCR loaded beads was higher than background, usually after 3 rounds), the libraries were stained with 500 nM streptavidin-TCR tetramer as described above, washed 3× with PBE, then incubated with 50 uL anti-Alexa647 Microbeads (Miltenyi, 130-091-395) in 450 µL PBE for 20 minutes. The yeast were washed a final time and passed through a Miltenyi LS column. Enriched yeast were then plated on SDCAA plates for characterization of individual colonies. Individual yeast clones were then screened for tetramer staining as described above. Plasmids containing the selected pMHC were isolated from positive clones via yeast miniprep (Zymoprep II kit, Zymo Research) and sequenced (Sequetech).
Deep sequencing of selection libraries. Pooled plasmids from 5×10^7 yeast from each round of selection were isolated via yeast miniprep (Zymoprep II kit, Zymo Research) and used as PCR template to prepare Illumina samples. Amplicon libraries were designed as follows: (Illumina P5-Truseq read 1-(N8)-Barcode-pMHC-(N8)-Truseq read 2-IlluminaP7). N8 was added immediately after both sequencing primers to generate diversity for low complexity sequencing reads. The adapter and barcode sequences were appended via nested 25-round cycles of PCR of the purified plasmids using Phusion polymerase (NEB). Primers were proximal to the peptide on the pMHC, annealing to the Aga2p leader sequence (5′ end) and MHC β1 domain (3′ end) to ensure high quality sequence reads of the peptide with double coverage. Final PCR products were run on a high percentage agarose gel and purified via gel extraction. PCR products were then quantitated via nanodrop, normalized for each barcoded round of selection to be equally represented, doped with 5-50% PhiX DNA to ensure sufficient sequence diversity for high quality sequence reads, and run on an Illumina MiSeq with 2×150 nt Paired End reads. The initial deep sequencing run, for the 2B4-I-E^k selections, was conducted with 1×150 nt Single End reads. When the sequencing data was analyzed as described below, we saw no significant difference in data quality between single and paired-end reads (as judged by comparing the results for 226/5cc7 when analyzed as single reads vs. paired-end reads). Deep sequencing was conducted at the Stanford Stem Cell Institute Genome Center.
The library was expressed and screened as described above in Example 1, with the AGA1 T cell receptor.
The top 20 peptides after round 3 has the sequences shown below in Table 3. […]

Sequence	number of times the peptide was represented, Rd1	number of times the peptide was represented, Rd2	number of times the peptide was represented, Rd3	number of times the peptide was represented, Rd4	number of times the peptide was represented, Naïve
YSFKPELKEIF [HLA-B5703 library peptide selected with AGA1 TCR]	5	5648	28641	20312	0
RSFYPEIREYW [HLA-B5703 library peptide selected with AGA1 TCR]	19	14782	119258	48648	7
NSLKPEIPDYF [HLA-B5703 library peptide selected with AGA1 TCR]	47	48656	268475	171826	11
KSFVPELKPAF [HLA-B5703 library peptide selected with AGA1 TCR]	36	37327	157329	120443	2
RSFVPEIGMGF [HLA-B5703 library peptide selected with AGA1 TCR]	18	20370	22329	65722	8
KSCTPEVREYF [HLA-B5703 library peptide selected with AGA1 TCR]	17	15114	94896	49796	0
SSGVPEVRMMF [HLA-B5703 library peptide selected with AGA1 TCR]	38	40422	215079	125041	6
GSLAPEIRMYW [HLA-B5703 library peptide selected with AGA1 TCR]	11	3108	23178	10848	9
GTIRPEIREMW [HLA-B5703 library peptide selected with AGA1 TCR]	37	36754	226381	113394	5
KSLTPEVRGYW [HLA-B5703 library peptide selected with AGA1 TCR]	15	13273	30634	38231	1
ASFSPELRMAW [HLA-B5703 library peptide selected with AGA1 TCR]	10	9925	47218	31919	0
ASFRPELAEFW [HLA-B5703 library peptide selected with AGA1 TCR]	11	14699	24829	42208	1
KSLAPEVRDLF [HLA-B5703 library peptide selected with AGA1 TCR]	8	6502	34865	22054	0
LSLRPEIPLFF [HLA-B5703 library peptide selected with AGA1 TCR]	74	63749	183724	189891	5
WTYRPEVRGVW [HLA-B5703 library peptide selected with AGA1 TCR]	21	30482	128915	91015	4
NSFRPEVAMKY [HLA-B5703 library peptide selected with AGA1 TCR]	7	6013	31331	19786	6
NSVKPEIRPVW [HLA-B5703 library peptide selected with AGA1 TCR]	10	10086	33679	32818	6
SSFSPELRMRW [HLA-B5703 library peptide selected with AGA1 TCR]	10	14335	98338	48729	3
SALRPEIRLLW [HLA-B5703 library peptide selected with AGA1 TCR]	50	28840	21235	70740	1
